Measurements reported in US7871978B2, “Bone tropic peptides” (University of Virginia Patent Foundation, priority 2004, dated 2011).
“Also recorded” adds a separate entry of the source.

Tests used:
[1] = tested on: bovine aortic endothelial cells (BAEC); experiment: Peptide binding to BAEC in culture (Avidin-FITC); design: key: ✓: Check marks indicate positive binding observed with FITC; −: a dash indicates a negative result
Protocol: (§1) For localization of peptide binding to cells and tissue sections, biotinylated peptides were synthesized. Fluorescein-isothiocyanate (FITC) labeled Avidin was used to localize the peptides on cells in culture and in tissue sections in vitro by epiluminescence microscopy. In addition, the biotinylated peptides were detected at concentrations as low as 1 μM in slot blots.
Bone marrow cells isolated from mouse femur were lifted with ethylenediaminetetraacetic acid (EDTA) and trypsin, resuspended, and allowed to attach on fibronectin-coated chamber slides for Avidin-FITC staining. […] The D1 cell is a multipotential mesenchymal stem-like line that was isolated from bone marrow and shown to have the characteristics of osteoprogenitor cells. This cell line has been well established and used successfully in several in vitro and in vivo studies in our laboratory. Peptide binding to human bone marrow endothelial cells (HBME) and bovine aortic endothelial cells (BAEC) in culture was also tested using the same procedure.

[2] = tested on: bovine aortic endothelial cells; experiment: Effect of peptides on adherent bovine aortic endothelial cells on fibronectin or collagen; format: cell-based; settings: 0.1M biotinylated peptide, 1 hour; cells adhered four hours on fibronectin or collagen
Outline: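 Bovine aortic endothelial cells on fibronectin- or collagen-coated glass slides (5,000 cells/well) received biotinylated peptides in PBS/1% BSA for 1 h after 4 h, 48 h or ~6 h adherence, at 0.1M down to 0.0001M. Cells were fixed in 2% paraformaldehyde, then stained with ExtrAvidin-FITC overnight at 4 °C; fluorescence microscopy.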

bone and bone marrow = experiment: In vivo biopanning with 12-mer peptide phage display library; design: species or system BALB/c mice; settings: for PERCENT FREQUENCY: phage eluted from bone and bone marrow; for PHAGE SEQUENCE FREQUENCY (number of times the sequence was found in a group of plaques): phage eluted from bone and bone marrow after repeated rounds
Outline: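 BALB/c mice (8 weeks) received 3.4×10^10 pfu of a 12-mer peptide phage library (pIII fusion, GGGS spacer) by intracardiac injection and were euthanized after 5 min. Bound phage eluted from bone and bone marrow was titered, amplified and re-injected at the same dose. Peptide frequency was compared with liver, kidney, lung, spleen and brain; sequences identified by phage DNA sequencing.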

[3] = tested on: bone and marrow tissue sections (mouse femur, rib); experiment: Biotinylated peptide binding to bone/marrow tissue sections, Avidin-FITC fluorescence; design: key to Localization of peptide binding: Bone/Marrow (tissue sections): ✓: Check marks indicate positive binding observed with FITC; −: a dash indicates a negative result; settings: for Localization of peptide binding: Bone/Marrow (tissue sections): FITC; for Binding to rib and long bone growth plate sections: biotinylated peptides, 1/50,000 dilution of Avidin-FITC
Protocol: Methods: Four-week old Swiss Webster mice were euthanized; the femurs were excised and decalcified in 0.25M EDTA in PBS solution for 5 days, and washed in PBS for 24 hours. The femoral shafts were obtained by cutting off the proximal and distal ends of the femur. The femoral shafts were placed in Tissue-Tek O.C.T. Compound (Sukura Finetek, Torrance, Calif.) and frozen at −20° C. overnight. Sections were cut at 10 μm serially with a cryomicrotome, rinsed with 1% BSA in PBS three times. To block non-specific reaction sections were incubated with Avidin/Biotin Blocking Kit (Vector Laboratories, Inc. Burlingame, Calif.) according to the manufacturer's instructions. Following another rinse with PBS, 150 μl 10 mM solution of each biotinylated peptide (L1, L2, L7, R1, R8) was added to the slides and incubated for 1 hour at room temperature. In negative controls, only PBS was added. After rewashes with 1% BSA, 150 μl of 1:50,000 dilution of Avidin-FITC was added to each slide and incubated overnight at 4° C.
The sections were washed with 1% BSA in PBS and mounted with Vectashield (Vector Laboratories Inc., Burlingame, Calif.). Fluorescence was visualized using a Nikon eclipse E600 microscope (Nikon, Melville, N.Y.) equipped with a 535 nm wavelength fluorescein filter. Images were obtained using a Sony DKC-5000 digital camera (Sony Electronics Inc.) and processed with Adobe Photoshop software (Adobe Systems Incorporated, San Jose, Calif.).
as §1
Cryosections of decalcified femurs harvested from 4 week BALB/c mice were incubated with biotinylated peptide and Avidin-FITC. […] The distribution of fluorescence throughout the marrow was uneven. […] In control slides incubated with PBS without peptide, none of the cells could be detected by fluorescence (not shown). […]

[4] = tested on: Unicortical femoral defects; experiment: Peptide-mediated osteogenesis in cortical bone defects (Example 8); format: in vivo, Fisher 344 rats; settings: for Histological appearance of repair tissue in the defect / Effectiveness at stimulating osteogenesis and cortical bone repair: 100 mM peptide in gelfoam, two weeks postoperatively; for Effectiveness at stimulating osteogenesis and cortical bone repair: versus gelfoam+PBS
Outline: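 Peptides (100 mM in a 1.5 × 2 mm gelfoam carrier) were placed in 1.5 mm unicortical femoral defects in Fisher 344 rats, with the contralateral defect given gelfoam+PBS as control, and harvested at two weeks. L7 was also dosed at 1, 5 and 20 mM, and 20 mM L7 was followed over 5, 10, 15 and 20 days.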

[5] = BALB/c mouse decalcified femur cryosections, biotinylated peptide and Avidin-FITC
[6] = BALB/c mouse femur cryosections, biotinylated peptide
[7] = Swiss Webster mouse decalcified femur cryosections, 10 mM biotinylated peptide, 1 hour, Avidin-FITC
[8] = Swiss Webster mouse femur cryosections, 10 mM biotinylated peptide
[9] = biotinylated peptide, Avidin-FITC

Fluorescence detected in femur sections incubated with peptide [3, 5]	Localization of peptide binding: Bone/Marrow (tissue sections) [3]	Fluorescence detected in femur sections incubated with peptide [3, 7]	Substance	Localization of peptide binding: BAEC [1]	Effect on adherent BAEC (Experiment 1) [2]	PERCENT FREQUENCY (bone and bone marrow)	PHAGE SEQUENCE FREQUENCY (number of times the sequence was found in a group of plaques) (bone and bone marrow)	Cell shape preferentially recognized by peptide [3, 6]	Extent of marrow cells detected by fluorescence [3, 6]	Cell shape preferentially recognized by peptide [3, 8]	Extent of marrow cells detected by fluorescence [3, 8]	New bone formation versus corresponding controls at every time point ([4]; 20 mM, 5, 10, 15, and 20 days)	Time course of cortical bone repair ([4]; 20 mM, 5, 10, 15, and 20 days)	Histological appearance of repair tissue in the defect [4]	Effectiveness at stimulating osteogenesis and cortical bone repair [4]	Amount of bone that regenerated versus controls without peptide ([4]; 1, 5, and 20 mM)	Effect of peptide concentration on cortical bone regeneration ([4]; 1, 5, and 20 mM)	Binding to rib and long bone growth plate sections [3]	Binding to bone and marrow in cryosections of mouse femur [3, 9]	Binding to fresh frozen sections of mouse rib [3, 9]
Fluorescence was detected	✓	Fluorescence was detected	ASN-SER-MET-ILE-ALA-HIS-ASN-LYS-THR-ARG-MET-HIS-GLY-GLY-GLY-SER (NSMIAHNKTRMHGGGS; listed as Homo sapiens) [Peptide L7]	✓	the cells lifted and formed clusters that stained intensely	3.6%	1/28	Cells that appeared morphologically elongated showed the highest fluorescence intensity	most of the cells were detectable but fluorescence intensity was variable	Cells that appeared morphologically elongated showed the highest fluorescence intensity	most of the cells were detectable but fluorescence intensity was variable	new bone formation was greater in the defects treated with peptide compared with the corresponding controls	Cortical bone regeneration increased with time	considerable amounts of cortical bone in the defects	potentiate bone regeneration in vivo; also recorded: most effective at stimulating osteogenesis and cortical bone repair; also recorded: most effective peptides for osteogenesis and repair of cortical defects	increased with all the concentrations of peptide, even at 1 mM and 5 mM compared with the controls without peptide	Osteogenesis was most pronounced with the highest concentration of peptide			
Fluorescence was detected	✓	Fluorescence was detected	ASN-TYR-SER-HIS-LEU-ARG-VAL-LYS-LEU-PRO-THR-PRO-GLY-GLY-GLY-SER (NYSHLRVKLPTPGGGS; listed as Homo sapiens) [Peptide R1]	✓	the cells had lifted completely and most of the cells disappeared from the surface of the slides, leaving a lot of cell debris	24.1%	7/29	recognized the round cells preferentially	did not detect as many cells	recognized the round cells preferentially	did not detect as many cells			considerable amounts of cortical bone in the defects	potentiate bone regeneration in vivo; also recorded: most effective at stimulating osteogenesis and cortical bone repair; also recorded: most effective peptides for osteogenesis and repair of cortical defects			significant binding to rib and long bone growth plate		
	✓		SER-GLY-HIS-GLN-LEU-LEU-LEU-ASN-LYS-MET-PRO-ASN-GLY-GLY-GLY-SER (SGHQLLLNKMPNGGGS; listed as Homo sapiens) [Peptide L13]	−	no effect, with results similar to PBS	23.3%	7/30							a considerable amount of gelfoam remaining in the defects, with thinner and more loosely organized cortical bone	least effective for cortical bone repair			significant binding to rib and long bone growth plate	binds to areas of bone and marrow in cryosections of mouse femur	binds to fresh frozen sections of mouse rib containing bone and marrow cells
